Reference: ChEMBL document CHEMBL1132191, “Prediction of the binding free energies of new TIBO-like HIV-1 reverse transcriptase inhibitors using a combination of PROFEC, PB/SA, CMC/MD, and free energy calculations” (J Med Chem, 1999)

Molecular target: Human immunodeficiency virus type 1 reverse transcriptase (Human immunodeficiency virus 1, UniProt Q72547)
Assay: Effective concentration against HIV-1 reverse transcriptase
Type: functional

Compound	EC50 [µM]
C=CCN1[C@H](C)c2cccc3[nH]c(=S)n(c23)C[C@@H]1C	0.79
C=CCN1[C@@H](C)Cn2c(=S)[nH]c3cccc(c32)[C@@H]1C	0.039
C=CCN1Cc2c(Cl)ccc3[nH]c(=S)n(c23)C[C@@H]1C	0.0046
CC(C)=CCN1Cc2cc(Cl)cc3[nH]c(=S)n(c23)C[C@@H]1C	0.033
C=CCN1Cc2c(C)ccc3[nH]c(=S)n(c23)C[C@@H]1C	0.014
C=CCN1Cc2cccc3[nH]c(=O)n(c23)C[C@@H]1C	4.2
CC(C)=CCN1Cc2cccc3[nH]c(=S)n(c23)C[C@@H]1C	0.044
CC(C)=CCN1Cc2c(Cl)ccc3[nH]c(=S)n(c23)C[C@@H]1C [TIVIRAPINE]	0.0051
